# Data taken from US20080242685A1, “Chemical Compounds” (Smithkline Beecham Corporation, priority 2005, published 2008).
# Biological target: T1, Recombinant human IKKβ (residues 1-737) (Homo sapiens, UniProt O14920)
# T1 construct: Recombinant human IKKβ (residues 1-737); GST (C); made in house
# T1 sequence (O14920 1-737): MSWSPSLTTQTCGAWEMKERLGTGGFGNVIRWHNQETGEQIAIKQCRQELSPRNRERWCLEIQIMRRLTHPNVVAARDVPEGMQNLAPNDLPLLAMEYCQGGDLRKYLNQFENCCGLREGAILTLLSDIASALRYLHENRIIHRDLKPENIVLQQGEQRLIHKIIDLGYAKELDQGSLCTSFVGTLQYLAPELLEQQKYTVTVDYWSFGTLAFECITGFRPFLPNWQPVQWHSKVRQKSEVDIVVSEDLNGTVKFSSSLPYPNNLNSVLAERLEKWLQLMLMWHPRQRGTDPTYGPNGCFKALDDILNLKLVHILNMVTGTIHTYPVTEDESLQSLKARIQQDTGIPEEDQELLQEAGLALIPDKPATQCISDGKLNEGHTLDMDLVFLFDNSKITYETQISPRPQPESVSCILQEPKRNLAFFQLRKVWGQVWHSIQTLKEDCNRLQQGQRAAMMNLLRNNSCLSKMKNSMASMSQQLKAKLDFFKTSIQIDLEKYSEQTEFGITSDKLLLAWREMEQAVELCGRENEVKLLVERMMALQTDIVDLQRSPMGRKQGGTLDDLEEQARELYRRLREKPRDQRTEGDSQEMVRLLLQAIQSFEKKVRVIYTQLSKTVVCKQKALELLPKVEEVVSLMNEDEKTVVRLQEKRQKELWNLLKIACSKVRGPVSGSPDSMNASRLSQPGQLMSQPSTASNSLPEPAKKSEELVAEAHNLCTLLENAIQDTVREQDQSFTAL
# Experiment: IKK2 Assay (TR-FRET)
# Type: biochemical
# Conditions: IKK2 5 nM, GST-IκBα substrate 25 nM, ATP 1 μM, 30 minutes at room temperature, read-out: pIC50 against IKK2 (converted)
# Protocol: Recombinant human IKKβ (residues 1-737) was expressed in baculovirus as a C-terminal GST-tagged fusion protein, and its activity was assessed using a time-resolved fluorescence resonance energy transfer (TR-FRET) assay. Briefly, IKK2 (5 nM final) diluted in assay buffer (50 mM HEPES, 10 mM MgCl2, 1 mM CHAPS pH 7.4 with 1 mM DTT and 0.01% w/v BSA) was added to wells containing various concentrations of compound or DMSO vehicle (3% final). The reaction was initiated by the addition of GST-IκBα substrate (25 nM final)/ATP (1 μM final), in a total volume of 30 μl. The reaction was incubated for 30 minutes at room temperature, then terminated by the addition of 15 μl of 50 mM EDTA. Detection reagent (15 μl) in buffer (100 mM HEPES pH 7.4, 150 mM NaCl and 0.1% w/v BSA) containing antiphosphoserine-IκBα-32/36 monoclonal antibody 12C2 (Cell Signalling Technology, Beverly Mass., USA) labelled with W-1024 europium chelate (Wallac OY, Turku, Finland), and an APC-labelled anti-GST antibody (Prozyme, San Leandro, Calif., USA) was added and the reaction was further incubated for 60 minutes at room temperature. The degree of phosphorylation of GST-IκBα was measured using a Packard Discovery plate reader (Perkin-Elmer Life Sciences, Pangbourne, UK) as a ratio of specific 665 nm energy transfer signal to reference europium 620 nm signal.
row,SMILES,IC50 [µM]
1,"CC(C)(C)OC(=O)N1CCC(c2c[nH]c3c(C(N)=O)nc(-c4ccccc4)cc23)CC1 [Example 6, 1,1-dimethylethyl 4-[7-(aminocarbonyl)-5-phenyl-1H-pyrrolo[2,3-c]pyridin-3-yl]-1-piperidinecarboxylate]",≤ 10
2,"CC(C)(C)OC(=O)N1CC=C(c2c[nH]c3c(C(N)=O)nc(-c4ccccc4)cc23)CC1 [Example 5, 1,1-dimethylethyl 4-[7-(aminocarbonyl)-5-phenyl-1H-pyrrolo[2,3-c]pyridin-3-yl]-3,6-dihydro-1(2H)-pyridinecarboxylate]",≤ 10
3,"NC(=O)c1nc(-c2ccccc2)cc2cc[nH]c12 [Example 14, 5-phenyl-1H-pyrrolo[2,3-c]pyridine-7-carboxamide]",≤ 10

# Continued, values first:
row,IC50 [µM],SMILES
1,≤ 10,"NC(=O)c1nc(-c2ccccc2)cc2c(C3CCNCC3)c[nH]c12 [Example 7, 5-phenyl-3-(4-piperidinyl)-1H-pyrrolo[2,3-c]pyridine-7-carboxamide]"
2,≤ 10,"CCS(=O)(=O)N1CCC(c2c[nH]c3c(C(N)=O)nc(-c4ccccc4)cc23)CC1 [Example 8, 3-[1-(ethylsulfonyl)-4-piperidinyl]-5-phenyl-1H-pyrrolo[2,3-c]pyridine-7-carboxamide]"
